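Cells were grown in 96-well plates and exposed to each compound for 48 hours at five concentrations; endpoints were interpolated linearly between bracketing concentrations, or set to the highest concentration if not reached. GI50 = concentration required for 50% inhibition of growth. TGI: total growth inhibition.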
Assays:
Experiment in all cases: NCI tumour cell line growth inhibition, 48 h
[1] = system: KM20L2 colon
[2] = system: DMS 114 small cell lung
[3] = system: DMS 273 small cell lung
[4] = system: LXFL 529 NSCLC
[5] = system: M19-MEL melanoma
[6] = system: HOP-18 NSCLC
[7] = system: MDA-N
[8] = system: RXF-631 renal
[9] = system: XF 498 CNS
[10] = system: P388/ADR leukemia
[11] = system: P388 leukemia
[12] = system: SN12K1 renal

SMILES	TGI [1]	TGI [2]	TGI [3]	TGI [4]	TGI [5]	TGI [6]	TGI [8]	TGI [9]	further results
CN(C)CC/C(=N\Nc1ccc(Cl)c(Cl)c1)c1ccccc1	3.17 µM	3.86 µM	3.23 µM	2.9 µM	3.51 µM	5.76 µM			
NC(CSc1nc2ccccn2c1[N+](=O)[O-])C(=O)O (configuration not stated)									TGI [7]: > 100 µM
OCCNc1ncnc2c1ncn2C1OC(CO)C(O)C1O (configuration not stated)									TGI [7]: > 100 µM
COc1cc(/C=C/c2ccc(OC(C)=O)cc2)cc(OC)c1OC	> 100 µM	94.2 µM	> 100 µM	> 100 µM	> 100 µM	> 100 µM	> 100 µM		
COc1ccc2nc(NC(=O)C(=O)C(C(=O)c3ccccc3-c3ccccc3)C3OC(=O)c4ccccc43)sc2c1 (configuration not stated)	50.1 µM	37.2 µM		26.3 µM	31 µM		71.6 µM	45.7 µM	
NC(=S)NNC(=O)CCC(=O)Nc1ccc(Cl)cc1Cl	> 100 µM	> 100 µM	> 100 µM	86.9 µM	> 100 µM		> 100 µM		
Cc1ccccc1-c1c(N)nc(N)nc1C(=O)Nc1nccs1	> 100 µM	> 100 µM	> 100 µM	> 100 µM	> 100 µM	> 100 µM	> 100 µM	> 100 µM	
CCC[CH2][Ge]([CH2]CCC)([CH2]CCC)[O]C(=O)C(O)c1ccccc1 (configuration not stated)	22 µM	7.19 µM	11.9 µM	21.4 µM	22.3 µM	51 µM	31.9 µM	4.92 µM	GI50 [1]: 2.18 µM; GI50 [2]: 0.284 µM; GI50 [8]: 5.7 µM; GI50 [3]: 1.2 µM; GI50 [4]: 1.29 µM; GI50 [5]: 8.65 µM; GI50 [6]: 18.5 µM
O=C(O)CCCSc1nc2ccccc2s1									TGI [7]: > 100 µM
CCc1ccc(Nc2cc(=O)[nH]c(=S)n2C)cc1	> 100 µM	> 100 µM	> 100 µM	> 100 µM	> 100 µM	> 100 µM		> 100 µM	
O=C1OC(C2=CC(=O)c3ccccc3C2=O)C(Cl)=C1Cl (configuration not stated)									TGI [7]: > 100 µM
CCOC(=O)N1N=NC2C3OC(C[C@@]3(C#N)OC(C)=O)[C@H]21 (some centres not stated)	> 100 µM		> 100 µM	> 100 µM	> 100 µM	> 100 µM	> 100 µM	> 100 µM	
CCCCCCCCCC1C(C)c2c([nH]c3ccccc23)C2C(=O)N(c3ccccc3)C(=O)C21 (configuration not stated)	24.9 µM	28.4 µM	25 µM	50.4 µM			11.7 µM	23.2 µM	
CCC[CH2][Sn]([CH2]CCC)([O]C(=O)c1cc(OC)c(OC)cc1OC)[O]C(=O)c1cc(OC)c(OC)cc1OC		1.95 µM	3.37 µM	1.22 µM	2.36 µM		2.93 µM	2.16 µM	GI50 [2]: 0.492 µM; GI50 [9]: 0.767 µM; GI50 [8]: 1.37 µM; GI50 [3]: 1.55 µM; GI50 [4]: 0.346 µM; GI50 [5]: 1.03 µM
Cc1ccc(NC(=O)CC/C(CC(=O)c2ccc(F)cc2)=N\NC(=O)C(=O)NN)cc1C	> 100 µM	> 100 µM	> 100 µM	> 100 µM	> 100 µM	> 100 µM	> 100 µM		
COc1cc(C(=O)C/C(CCC(=O)Nc2ccc(Cl)cc2Cl)=N/NC(=O)C(N)=O)ccc1O	> 100 µM	> 100 µM	> 100 µM	> 100 µM	> 100 µM	> 100 µM	> 100 µM	> 100 µM	
CC1=CC2=C(C(N)=O)C(=O)OC2(C)C(c2ccccc2)C1 (configuration not stated)									TGI [7]: > 100 µM
Cc1nc(-c2nc(C)c(C(=O)NN(C)C)s2)sc1C(=O)NN(C)C	> 100 µM		38.9 µM	> 100 µM	> 100 µM	> 100 µM		> 100 µM	
CC1=C(C(=O)CC(=O)C(=O)Nc2ccccc2)Sc2ccccc2N1	> 100 µM	> 100 µM		> 100 µM	> 100 µM	> 100 µM	> 100 µM	> 100 µM	
Nc1ccc2c(c1)CC1c3ccccc3C(C2)c2ccccc21	> 100 µM	> 100 µM	> 100 µM	> 100 µM	> 100 µM	> 100 µM			

SMILES	TGI [1]	TGI [2]	TGI [3]	TGI [4]	TGI [5]	TGI [6]	TGI [8]	TGI [9]	further results
CCOC(=O)C(Cc1ccccc1)NC(=O)OC(C)(C)C (configuration not stated)		> 100 µM	> 100 µM	> 100 µM	> 100 µM		> 100 µM	> 100 µM	
O=C(/C=C/c1ccccc1O)c1cccnc1	> 100 µM		> 100 µM	> 100 µM	> 100 µM	> 100 µM	> 100 µM	> 100 µM	
CC(=O)C1C(=O)C(=O)N(c2ccccc2N2C(=O)C(=O)C(C(C)=O)C2=O)C1=O (configuration not stated)	> 100 µM	> 100 µM		> 100 µM	> 100 µM	> 100 µM	> 100 µM		
Cc1ccc(S(=O)(=O)SCc2ccccc2CSS(=O)(=O)c2ccc(C)cc2)cc1	> 100 µM	> 100 µM	44.2 µM	32.6 µM	60.3 µM	> 100 µM	> 100 µM	47.4 µM	
O=C1[C@@H]2C3SC(c4ccccc43)[C@@H]2C(=O)N1c1ccccc1	> 100 µM	> 100 µM	> 100 µM	> 100 µM	> 100 µM	> 100 µM		> 100 µM	
CC(=O)OCC1OC(n2c(=O)n(-c3ccccc3)c(=O)c3cc(Br)cc(Br)c32)C(OC(C)=O)C(OC(C)=O)C1OC(C)=O (configuration not stated)	> 100 µM	> 100 µM	> 100 µM	> 100 µM	> 100 µM	> 100 µM	> 100 µM	> 100 µM	
Cc1cccc(NC(=O)CCl)c1									TGI [7]: > 10 µM
O=C(O)CCCCCO	> 100 µM	> 100 µM	> 100 µM	> 100 µM	> 100 µM	> 100 µM		> 100 µM	
CC1(O)CC2(O)C=CC3=C(C(=O)c4cccc(O)c4C3=O)C2(O)C(=O)C1O (configuration not stated)	2.71 µM	3.44 µM	16.1 µM	1.08 µM	1.76 µM	3.09 µM			TGI [7]: 3.24 µM
CCC1(C(=O)OC)CCc2c(OC)ccc(OC)c2C1=O (configuration not stated)	> 100 µM	> 100 µM	> 100 µM	> 100 µM	> 100 µM	> 100 µM	> 100 µM	> 100 µM	
Cc1c(C(=O)/C=C/c2ccccc2Cl)[n+](=O)c2ccccc2n1[O-]	30.6 µM	20.1 µM	27.9 µM	20 µM	29.1 µM	28.2 µM	36.5 µM		
CC[N+]1(C)CCC(O)(c2ccccc2)C(C(=O)c2ccccc2)C1 (configuration not stated)	44.5 µM	44.3 µM	47.1 µM	23.6 µM	36 µM	31 µM			
O=C(CC(=O)Nc1ccccc1O)Nc1ccccc1O	> 100 µM	12.6 µM	> 100 µM	63.9 µM	28.4 µM	34.2 µM	49.9 µM		
CC(=O)Nc1ccccc1-c1cnc2ccccc2n1	> 100 µM	> 100 µM		> 100 µM	> 100 µM	> 100 µM		> 100 µM	
Cc1ccc(C2(O)CC(c3ccc([N+](=O)[O-])o3)=NN2C(=O)COc2ccccc2Cl)cc1 (configuration not stated)	> 60 µM	80.7 µM	> 100 µM	49.2 µM	33.5 µM	> 100 µM	> 55.1 µM	> 100 µM	
NCCCC1NC(=O)/C(=C(O)/C=C/C2CCC[C@@H]2CC2SCCS2)C1=O (some centres not stated)	> 100 µM	> 100 µM	> 100 µM	> 100 µM	> 100 µM	> 100 µM			
CCC[CH2][Ge]([CH2]CCC)([CH2]CCC)[O]C(=O)C(OC)c1ccccc1 (configuration not stated)	> 100 µM	34.4 µM	> 75.9 µM	> 100 µM	> 100 µM	> 100 µM	> 100 µM	> 100 µM	GI50 [1]: 17.2 µM; GI50 [2]: 7.56 µM; GI50 [9]: 41.1 µM; GI50 [8]: 29.4 µM; GI50 [3]: 17.6 µM; GI50 [4]: 15.6 µM; GI50 [5]: 33.9 µM; GI50 [6]: > 100 µM
O=C(O)c1ccc(NCc2nc3cc4ccccc4cc3[nH]2)cc1									TGI [7]: > 100 µM
C/C(=N\NC(=O)c1ccccc1O)c1cccc(/C(C)=N/NC(=O)c2ccccc2O)n1	> 100 µM	36.9 µM	> 100 µM	53.1 µM	> 74 µM	39.4 µM		46.7 µM	GI50 [1]: 1.13 µM; TGI [7]: > 100 µM; GI50 [3]: 20.4 µM; GI50 [5]: 11.5 µM; GI50 [6]: 1.84 µM
Nc1ncnc2c(C3OC(CO)C(O)C3O)[nH]nc12 (configuration not stated)	8.26 µM	1.36 µM	1.58 µM		80.5 µM	0.144 µM		1.34 µM	TGI [10]: 123 µM; TGI [11]: 51.7 µM; TGI [12]: 1.88 µM

Source: PubChem BioAssay (NCI)
